Test results: paper PMC8776063, “Aurora Kinase A Is Involved in Controlling the Localization of Aquaporin-2 in Renal Principal Cells” (International Journal of Molecular Sciences, 2022)
Like-named read-outs stand apart in the source and are kept apart here.

Assays:
[1] = biological target: T1, DYRK1A (Homo sapiens, UniProt Q13627); experiment: Thermal shift assay; assay type: binding; settings: read-out: ΔTm DYRK1A
T1 construct: purchased in-house thermal shift (DSF) kinase panel (SGC Frankfurt); Promega NanoBRET for AURKA/B/C

[2] = biological target: T2, PHKG2 (Homo sapiens, UniProt P15735); experiment: Thermal shift assay; assay type: binding; settings: read-out: ΔTm PHKG2
T2 construct: purchased in-house thermal shift (DSF) kinase panel (SGC Frankfurt); Promega NanoBRET for AURKA/B/C
T2 sequence (P15735 6-293): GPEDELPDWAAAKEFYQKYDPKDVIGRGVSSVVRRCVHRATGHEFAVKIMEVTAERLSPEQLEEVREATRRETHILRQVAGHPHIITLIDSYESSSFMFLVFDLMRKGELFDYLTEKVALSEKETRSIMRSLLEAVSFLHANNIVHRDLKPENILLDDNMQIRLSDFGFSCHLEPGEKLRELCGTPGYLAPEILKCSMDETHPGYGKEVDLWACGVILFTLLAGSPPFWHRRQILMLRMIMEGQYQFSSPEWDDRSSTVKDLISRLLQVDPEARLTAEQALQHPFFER

[3] = biological target: T3, CASK (Homo sapiens, UniProt O14936); experiment: Thermal shift assay; assay type: binding; settings: read-out: ΔTm CASK
T3 construct: purchased in-house thermal shift (DSF) kinase panel (SGC Frankfurt); Promega NanoBRET for AURKA/B/C
T3 sequence (O14936 1-337): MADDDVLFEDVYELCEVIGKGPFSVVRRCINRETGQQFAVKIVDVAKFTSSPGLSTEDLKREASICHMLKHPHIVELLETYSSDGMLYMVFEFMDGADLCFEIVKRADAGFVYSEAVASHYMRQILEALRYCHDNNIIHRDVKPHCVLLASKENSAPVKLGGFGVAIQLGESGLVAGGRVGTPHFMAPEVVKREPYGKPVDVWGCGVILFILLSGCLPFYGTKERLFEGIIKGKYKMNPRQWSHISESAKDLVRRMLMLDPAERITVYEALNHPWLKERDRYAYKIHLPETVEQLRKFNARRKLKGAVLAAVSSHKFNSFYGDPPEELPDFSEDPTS

[4] = biological target: T4, GAK (Homo sapiens, UniProt O14976); experiment: Thermal shift assay; assay type: binding; settings: read-out: ΔTm GAK
T4 construct: purchased in-house thermal shift (DSF) kinase panel (SGC Frankfurt); Promega NanoBRET for AURKA/B/C
T4 sequence (O14976 14-351): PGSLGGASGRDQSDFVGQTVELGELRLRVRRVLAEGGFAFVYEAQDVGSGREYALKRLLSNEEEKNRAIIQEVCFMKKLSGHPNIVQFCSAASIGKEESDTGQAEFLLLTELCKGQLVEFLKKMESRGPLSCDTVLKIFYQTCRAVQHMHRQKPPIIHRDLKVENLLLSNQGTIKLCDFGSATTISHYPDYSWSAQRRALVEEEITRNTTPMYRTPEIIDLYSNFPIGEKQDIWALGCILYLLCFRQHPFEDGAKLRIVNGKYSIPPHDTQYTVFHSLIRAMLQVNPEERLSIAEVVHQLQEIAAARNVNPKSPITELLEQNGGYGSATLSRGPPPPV

[5] = biological target: T5, AAK1 (Homo sapiens, UniProt Q2M2I8); experiment: Thermal shift assay; assay type: binding; settings: read-out: ΔTm AAK1
T5 construct: purchased in-house thermal shift (DSF) kinase panel (SGC Frankfurt); Promega NanoBRET for AURKA/B/C
T5 sequence (Q2M2I8 27-365): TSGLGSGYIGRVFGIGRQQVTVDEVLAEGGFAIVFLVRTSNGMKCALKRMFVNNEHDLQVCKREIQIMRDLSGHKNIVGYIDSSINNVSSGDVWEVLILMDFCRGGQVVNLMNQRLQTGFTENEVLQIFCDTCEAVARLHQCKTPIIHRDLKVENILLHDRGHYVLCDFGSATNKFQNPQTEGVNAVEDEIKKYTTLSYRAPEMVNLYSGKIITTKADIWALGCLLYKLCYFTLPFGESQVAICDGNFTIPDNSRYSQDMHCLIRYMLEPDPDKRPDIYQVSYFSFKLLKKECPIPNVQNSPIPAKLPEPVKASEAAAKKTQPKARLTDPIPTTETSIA

[6] = biological target: T6, MAPK9 (Homo sapiens, UniProt P45984); experiment: Thermal shift assay; assay type: binding; settings: read-out: ΔTm MAPK9
T6 construct: purchased in-house thermal shift (DSF) kinase panel (SGC Frankfurt); Promega NanoBRET for AURKA/B/C
T6 sequence (P45984 whole entry): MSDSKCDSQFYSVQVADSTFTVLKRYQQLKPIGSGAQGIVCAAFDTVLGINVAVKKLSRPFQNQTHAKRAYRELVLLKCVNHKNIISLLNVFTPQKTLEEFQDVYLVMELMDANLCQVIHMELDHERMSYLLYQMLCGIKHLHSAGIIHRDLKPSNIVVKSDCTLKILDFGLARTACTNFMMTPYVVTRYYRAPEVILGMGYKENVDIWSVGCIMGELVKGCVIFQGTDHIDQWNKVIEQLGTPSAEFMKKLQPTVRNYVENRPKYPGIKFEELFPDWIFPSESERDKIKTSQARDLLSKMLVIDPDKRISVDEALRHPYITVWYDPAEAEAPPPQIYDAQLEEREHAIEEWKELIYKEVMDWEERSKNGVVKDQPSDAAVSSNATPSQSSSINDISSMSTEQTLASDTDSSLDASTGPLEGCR

[7] = biological target: T7, AURKC (Homo sapiens, UniProt Q9UQB9); experiment: NanoBRET assay in HEK293T cells; assay type: cell-based
T7 construct: full-length wild-type AURKA, AURKB, and AURKC were obtained as plasmids cloned in frame with a C-terminal NanoLuc-fusion; host or cells: HEK293T
T7 sequence (Q9UQB9 1-309): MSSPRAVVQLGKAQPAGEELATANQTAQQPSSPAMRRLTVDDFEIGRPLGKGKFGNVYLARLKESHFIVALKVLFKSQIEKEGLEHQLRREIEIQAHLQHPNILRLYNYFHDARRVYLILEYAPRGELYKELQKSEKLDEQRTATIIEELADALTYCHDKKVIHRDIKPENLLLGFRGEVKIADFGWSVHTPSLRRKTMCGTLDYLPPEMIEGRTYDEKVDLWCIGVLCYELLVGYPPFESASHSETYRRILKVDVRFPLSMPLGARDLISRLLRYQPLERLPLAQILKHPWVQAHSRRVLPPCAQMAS

[8] = biological target: T8, PIM1 (Homo sapiens, UniProt P11309); experiment: Thermal shift assay; assay type: binding; settings: read-out: ΔTm PIM1
T8 construct: purchased in-house thermal shift (DSF) kinase panel (SGC Frankfurt); Promega NanoBRET for AURKA/B/C
T8 sequence (P11309 whole entry): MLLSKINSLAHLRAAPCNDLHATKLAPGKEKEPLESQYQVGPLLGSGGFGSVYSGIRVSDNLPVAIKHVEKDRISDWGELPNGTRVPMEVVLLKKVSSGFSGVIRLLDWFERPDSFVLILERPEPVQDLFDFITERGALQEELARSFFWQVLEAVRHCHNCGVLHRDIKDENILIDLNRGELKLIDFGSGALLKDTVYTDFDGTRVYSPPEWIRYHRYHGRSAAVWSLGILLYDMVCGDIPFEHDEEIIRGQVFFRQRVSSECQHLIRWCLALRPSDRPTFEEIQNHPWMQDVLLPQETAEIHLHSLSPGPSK

[9] = biological target: T9, STK38L (Homo sapiens, UniProt Q9Y2H1); experiment: Thermal shift assay; assay type: binding; settings: read-out: ΔTm STK38L
T9 construct: purchased in-house thermal shift (DSF) kinase panel (SGC Frankfurt); Promega NanoBRET for AURKA/B/C
T9 sequence (Q9Y2H1 90-453): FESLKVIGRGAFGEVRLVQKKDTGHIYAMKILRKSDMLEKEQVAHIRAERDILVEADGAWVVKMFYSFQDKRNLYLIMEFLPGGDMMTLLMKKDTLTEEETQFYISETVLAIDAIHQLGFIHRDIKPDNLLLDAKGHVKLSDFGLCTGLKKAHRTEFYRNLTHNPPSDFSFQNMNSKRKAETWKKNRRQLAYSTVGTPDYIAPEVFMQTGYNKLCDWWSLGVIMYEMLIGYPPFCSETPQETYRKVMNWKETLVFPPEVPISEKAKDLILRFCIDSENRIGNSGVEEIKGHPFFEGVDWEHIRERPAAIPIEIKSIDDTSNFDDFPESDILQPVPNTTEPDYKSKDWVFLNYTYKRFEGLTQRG

[10] = biological target: T10, AKT3 (Homo sapiens, UniProt Q9Y243); experiment: Thermal shift assay; assay type: binding; settings: read-out: ΔTm AKT3
T10 construct: purchased in-house thermal shift (DSF) kinase panel (SGC Frankfurt); Promega NanoBRET for AURKA/B/C
T10 sequence (Q9Y243 148-479): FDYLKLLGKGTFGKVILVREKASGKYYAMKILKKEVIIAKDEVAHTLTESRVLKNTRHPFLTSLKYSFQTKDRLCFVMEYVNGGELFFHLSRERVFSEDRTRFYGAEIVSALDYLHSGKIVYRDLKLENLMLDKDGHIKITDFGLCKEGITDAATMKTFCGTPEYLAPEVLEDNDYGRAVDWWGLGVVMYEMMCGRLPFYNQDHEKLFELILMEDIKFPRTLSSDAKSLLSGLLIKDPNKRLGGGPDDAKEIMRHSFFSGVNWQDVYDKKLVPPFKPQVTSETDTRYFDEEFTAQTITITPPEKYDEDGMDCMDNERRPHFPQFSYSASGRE

[11] = biological target: T11, MAP2K6 (Homo sapiens, UniProt P52564); experiment: Thermal shift assay; assay type: binding; settings: read-out: ΔTm MAP2K6
T11 construct: purchased in-house thermal shift (DSF) kinase panel (SGC Frankfurt); Promega NanoBRET for AURKA/B/C
T11 sequence (P52564 47-334): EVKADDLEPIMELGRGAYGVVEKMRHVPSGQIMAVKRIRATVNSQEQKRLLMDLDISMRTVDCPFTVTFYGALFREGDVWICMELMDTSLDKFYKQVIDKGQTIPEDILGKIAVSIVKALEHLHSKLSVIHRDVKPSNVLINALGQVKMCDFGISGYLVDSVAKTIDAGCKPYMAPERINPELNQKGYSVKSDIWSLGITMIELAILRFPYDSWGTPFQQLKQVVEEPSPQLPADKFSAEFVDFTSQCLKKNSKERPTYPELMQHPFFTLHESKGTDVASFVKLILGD

[12] = biological target: T12, STK10 (Homo sapiens, UniProt O94804); experiment: Thermal shift assay; assay type: binding; settings: read-out: ΔTm STK10
T12 construct: purchased in-house thermal shift (DSF) kinase panel (SGC Frankfurt); Promega NanoBRET for AURKA/B/C
T12 sequence (O94804 18-317): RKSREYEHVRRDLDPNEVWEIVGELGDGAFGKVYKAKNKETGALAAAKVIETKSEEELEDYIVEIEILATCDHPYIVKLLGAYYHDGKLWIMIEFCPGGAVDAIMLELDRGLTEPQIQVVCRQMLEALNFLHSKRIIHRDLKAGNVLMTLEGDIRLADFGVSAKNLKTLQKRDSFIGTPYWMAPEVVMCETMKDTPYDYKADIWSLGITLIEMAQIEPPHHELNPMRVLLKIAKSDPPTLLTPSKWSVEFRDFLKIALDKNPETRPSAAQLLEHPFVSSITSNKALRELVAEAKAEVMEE

[13] = NanoBRET, n = 2, mean, Figure 6B, read-out: affinity to intracellular AURKC

Structure (SMILES)	ΔTm at 10 µM ([1]; compound 10 µM, n = 3) [°C]	ΔTm at 10 µM ([2]; compound 10 µM, n = 3) [°C]	ΔTm at 10 µM ([3]; compound 10 µM, n = 3) [°C]	ΔTm at 10 µM ([4]; compound 10 µM, n = 3) [°C]	ΔTm at 10 µM ([5]; compound 10 µM, n = 3) [°C]	ΔTm at 10 µM ([6]; compound 10 µM, n = 3) [°C]	ΔTm at 10 µM ([8]; compound 10 µM, n = 3) [°C]	ΔTm at 10 µM ([9]; compound 10 µM, n = 3) [°C]	ΔTm at 10 µM ([10]; compound 10 µM, n = 3) [°C]	ΔTm at 10 µM ([11]; compound 10 µM, n = 3) [°C]	ΔTm at 10 µM ([12]; compound 10 µM, n = 3) [°C]	IC50 [7, 13] [µM]	also measured
CCN1CCN(C(=O)Cc2ccc(Nc3ncc(F)c(Nc4ccc(C(=O)Nc5ccccc5Cl)cc4)n3)cc2)CC1 [Aurora-A inhibitor I, reference compound]	–	–	–	–	–	–	–	–	–	–	–	–	ΔTm at 10 µM [1]: 0.4 °C; ΔTm at 10 µM [2]: 0.7 °C; ΔTm at 10 µM [3]: 0.2 °C; ΔTm at 10 µM [4]: 5 °C; ΔTm at 10 µM [5]: 2.3 °C; ΔTm at 10 µM [6]: 2.9 °C; IC50 [7]: > 50 µM; ΔTm at 10 µM [8]: 0.2 °C; ΔTm at 10 µM [9]: 2.1 °C; ΔTm at 10 µM [10]: 0.2 °C; ΔTm at 10 µM [11]: 0.6 °C; ΔTm at 10 µM [12]: 3.8 °C
CCN1CCN(C(=O)Cc2ccc(Nc3ncc(F)c(Nc4ccc(C(=O)O)cc4)n3)cc2)CC1 [ERJ2-12]	-1.3	0.2	0	2.7	3.8	3	1.1	0.2	-0.1	0.8	2.2	–	IC50 ([7]; NanoBRET, n = 2, Figure 6B, bounds, read-out: affinity to intracellular AURKC): > 50 µM
CCN1CCN(C(=O)Cc2ccc(Nc3ncc(F)c(Nc4ccc(C(=O)Nc5ccccc5)cc4)n3)cc2)CC1 [ERJ2-11]	-0.6	0.8	-0.1	4.9	7.3	2.8	0.4	2.6	0.1	0.7	4.8	46	–
O=C(Cc1ccc(Nc2ncc(F)c(Nc3ccc(C(=O)Nc4ccccc4Cl)cc3)n2)cc1)NCCN1CCOCC1 [ERJ2-04]	-0.7	0.3	0.1	4.5	4.4	1.9	-0.2	1.5	-0.1	0.4	0.6	44.5	–
NC(=O)Cc1ccc(Nc2ncc(F)c(Nc3ccc(C(=O)Nc4ccccc4Cl)cc3)n2)cc1 [ERJ2-06]	0.8	0.9	0.1	5.1	6.8	2.9	0.2	2.5	0.1	0.8	1.4	12	–
